We go through one compound from paper PMC7997578, “Design, Synthesis, Dynamic Docking, Biochemical Characterization, and in Vivo Pharmacokinetics Studies of Novel Topoisomerase II Poisons with Promising Antiproliferative Activity” (Journal of Medicinal Chemistry, 2020).

One data set concerns DU145 cells. Briefly: cell viability MTT assay, DU145. The class given is cell-based, human. As to conditions: mean ± SD of two experiments, read-out: DU145 antiproliferative activity IC50. The procedure: The antiproliferative activity of all compounds was evaluated in (i) DU145, an androgen-independent prostate cancer cell line; (ii) HeLa, a cervical cancer cell line; and (iii) A549, a lung adenocarcinoma cell line (Table 1). […] Undoubtedly, this preliminary cytotoxicity data will need further characterization, also in relation to the in vitro activity of these compounds.
Human cancer cell lines A549 (lung adenocarcinoma, ATCC CCL-185), DU-145 (androgen-independent prostate cancer, ATCC HTB-81), and HeLa (cervical carcinoma, ATCC CCL-2) were obtained from ATCC. Cells were routinely grown in minimal essential medium containing Eagle’s salts and L-glutamine supplemented with 10% heat-inactivated FBS in a humidified atmosphere of 5% CO2 at 37 °C. To assess the antiproliferative activity of the compounds, cells were seeded at a density of 2500 cells/well (HeLa) or 5000 cells/well (A549, DU-145) in 96-well plates, and cell viability was measured using the MTT assay as described previously.[39] Values are reported as the mean ± SD of two independent experiments.
(Tetrazolium dyes change colour on reduction, which living cells bring about.)

Data set [1] in a line: plasma protein binding (rapid equilibrium dialysis), mouse. The class given is in vitro ADME. As to conditions: pH 7.4. As for the experimental part: (§1) 3. Aqueous t herm odynam ic solu bili ty
(§2) The thermodynamic solubility of 3f was determined by addition of Phosphate Buffered Saline (PBS) at pH 7. 4 to an exces s of solid compound.
(§3) The assay was performed by incubation of an aliquot of 2. 5mg of test compound in 500µL of PBS at pH 7. 4. The suspension was shaken at 300 RPM for 24h at 25°C. At the end of the incubation period, the saturated solution was filtered and analyzed by UPLC/MS for the quantification of dissolved compound (in µM) by UV at a specific wavelength ( λmax of the test compound). The analyses were performed on a Waters ACQUITY UPLC/MS SQD system equipped with an ESI ion source. The analyses were run on an ACQUITY UPLC BEH C 18 column (50x2. 1mmI D, particle size 1. 7µm) with a VanGuard BEH C 18 pr e-column (5x2. 1mmID, particle size 1. 7µm), using H 2O + 0. 1% HCOOH (A) and CH 3CN + 0. 1% HCOOH (B) as mobile phase.
(§4) 4. Plasm a Protei n Bindi ng
(§5) The assay was conducted in triplicate in human and mouse plasma. An appropriate volume of plasma was spiked with a known amount of 10mM DMSO stock solution of the test compound, thus reaching the incubation concentrations of 0. 5, 1 and 5 µM. […] At this point, the supernatants were ready for injections in the UPLC -MS/ MS system. […] Plasma protein binding was calculated applying appropriate corrections to compensate for dilutions during sampling.

A short description of data set [2]: plasma protein binding (rapid equilibrium dialysis), human. The class given is in vitro ADME. The settings on record: pH 7.4. The procedure: as §1, §2, §3, §4, §5

Where two headings read alike, the source gives them in different places. A value given as a limit tells only on which side of the number the result lay.

Turning to `O=C(Nc1cccc(OC(F)(F)F)c1)c1c(O)n(-c2ccccc2)c(=S)n(-c2ccccc2)c1=O` [3f, 6-Hydroxy-4-oxo-1,3-diphenyl-2-thioxo-N-(3-(trifluoromethoxy)phenyl)-1,2,3,4-tetrahydropyrimidine-5-carboxamide], the IC50 (in general, the point on the concentration scale where inhibition reaches its midpoint) is 4.7 ± 0.1 µM in the data set on DU145 cells (DU145 prostate cancer cells) and below 5 µM in the data set with DU145 cells (Homo sapiens, DU-145, DU145 prostate cancer cells). In addition, the fraction unbound at 3 h in data set [1] and in data set [2] was below 0.01 in each case.
